Laboratory results: ChEMBL document CHEMBL1201862, “PubChem BioAssay data set” (2004)
Each block holds one molecule with its values, some of them ahead of it. Calls of active or inactive are those of the source.

Legend:
Coagulation factor XII = molecular target: T1, Coagulation factor XII (Homo sapiens, UniProt P00748); format: functional;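 further: activated factor XIIa alpha cleaving a fluorogenic AMC peptide substrate; inhibitor potency from loss of enzyme activity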
T1 sequence (P00748 whole entry): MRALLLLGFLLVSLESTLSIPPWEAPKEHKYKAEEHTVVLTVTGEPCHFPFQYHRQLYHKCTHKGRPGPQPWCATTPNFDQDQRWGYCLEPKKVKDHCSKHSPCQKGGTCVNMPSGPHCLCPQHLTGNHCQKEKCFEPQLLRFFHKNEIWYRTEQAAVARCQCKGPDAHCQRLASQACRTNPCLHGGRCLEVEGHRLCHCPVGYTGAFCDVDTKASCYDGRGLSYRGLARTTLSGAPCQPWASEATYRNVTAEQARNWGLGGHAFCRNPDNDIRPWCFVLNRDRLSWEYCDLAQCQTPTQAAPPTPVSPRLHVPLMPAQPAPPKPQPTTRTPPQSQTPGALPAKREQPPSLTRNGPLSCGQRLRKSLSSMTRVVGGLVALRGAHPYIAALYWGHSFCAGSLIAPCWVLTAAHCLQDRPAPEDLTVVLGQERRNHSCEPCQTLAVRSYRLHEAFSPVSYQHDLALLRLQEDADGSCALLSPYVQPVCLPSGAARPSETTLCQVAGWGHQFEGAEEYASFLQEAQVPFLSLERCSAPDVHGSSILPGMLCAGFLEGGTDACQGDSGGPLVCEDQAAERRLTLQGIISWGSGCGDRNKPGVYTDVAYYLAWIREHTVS

[1] = P. falciparum late gametocyte killing, dose response, luminescence (AID 1117278); format: functional, cell-based;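 further: gametocytes exposed to compound for 24 hours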
[2] = molecular target: T2, Heat shock factor protein 1 (Mus musculus, UniProt P38532); assay: HSF1 potentiators in luciferase reporter cells, confirmation, cell-based, NIH3T3, luminescence, dose retest (AID 435004); format: functional;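 further: stress induced by proteasome inhibitor MG132 added 30 min after compound; luciferase reporter driven by HSF1 response element in NIH3T3 cells; actives raise luminescence as potentiators of the MG132 stress response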
T2 sequence (P38532 whole entry): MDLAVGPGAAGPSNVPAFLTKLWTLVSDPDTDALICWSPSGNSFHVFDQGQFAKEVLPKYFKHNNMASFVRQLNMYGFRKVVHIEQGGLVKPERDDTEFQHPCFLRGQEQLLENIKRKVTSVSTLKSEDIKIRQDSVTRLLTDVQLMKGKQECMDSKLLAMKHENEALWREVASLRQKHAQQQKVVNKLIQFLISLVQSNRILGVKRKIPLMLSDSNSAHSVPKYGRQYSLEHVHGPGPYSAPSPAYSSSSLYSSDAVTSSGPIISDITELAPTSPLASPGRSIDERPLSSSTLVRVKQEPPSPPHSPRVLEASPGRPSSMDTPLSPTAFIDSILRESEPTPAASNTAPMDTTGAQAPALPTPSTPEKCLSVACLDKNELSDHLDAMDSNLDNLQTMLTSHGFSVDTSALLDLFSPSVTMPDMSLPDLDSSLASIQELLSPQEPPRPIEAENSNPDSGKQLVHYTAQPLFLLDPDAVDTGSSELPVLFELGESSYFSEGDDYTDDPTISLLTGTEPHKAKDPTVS

[3] = Jurkat T cell cytotoxicity, dose response, cytotoxicity control for P. falciparum gametocyte viability project, luminescence (AID 1117277); format: functional, cell-based;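 further: potency reflects loss of cellular ATP meaning fewer viable cells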
[4] = molecular target: G-protein coupled receptor 55 (Homo sapiens, UniProt Q9Y2T6); assay: GPR55 antagonists blocking LPI-driven arrestin recruitment, primary screen, imaging, U2OS, beta-arrestin-GFP, LPI agonist (AID 2013); format: functional;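 further: antagonist potency measured as reduced agonist-driven arrestin aggregation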
[5] = molecular target: Intestinal-type alkaline phosphatase (Mus musculus, UniProt P24822); assay: PubChem AID 488785; format: functional
Bcl-2-like protein 1 = Bcl-2-like protein 1 (Homo sapiens, UniProt Q07817); assay: BCL-XL inhibitors, dose response, selectivity assay for MCL1 inhibitor project, biochemical, fluorescence polarization, 1536-well (AID 2218)
Bcl-2-like protein 1, sequence (Q07817 whole entry): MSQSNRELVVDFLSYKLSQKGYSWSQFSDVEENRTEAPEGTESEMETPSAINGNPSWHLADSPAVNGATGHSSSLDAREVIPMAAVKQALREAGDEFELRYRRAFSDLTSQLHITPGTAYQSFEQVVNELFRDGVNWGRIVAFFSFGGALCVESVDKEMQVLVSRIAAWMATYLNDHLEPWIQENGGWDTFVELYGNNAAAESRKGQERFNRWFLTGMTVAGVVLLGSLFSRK

[6] = molecular target: Induced myeloid leukemia cell differentiation protein Mcl-1 (Homo sapiens, UniProt Q07820); assay: MCL1-BIM BH3 interaction inhibitors, dose response, biochemical, fluorescence polarization, BIM-BH3 peptide, 1536-well (AID 2217)
Induced myeloid leukemia cell differentiation protein Mcl-1, sequence (Q07820 whole entry): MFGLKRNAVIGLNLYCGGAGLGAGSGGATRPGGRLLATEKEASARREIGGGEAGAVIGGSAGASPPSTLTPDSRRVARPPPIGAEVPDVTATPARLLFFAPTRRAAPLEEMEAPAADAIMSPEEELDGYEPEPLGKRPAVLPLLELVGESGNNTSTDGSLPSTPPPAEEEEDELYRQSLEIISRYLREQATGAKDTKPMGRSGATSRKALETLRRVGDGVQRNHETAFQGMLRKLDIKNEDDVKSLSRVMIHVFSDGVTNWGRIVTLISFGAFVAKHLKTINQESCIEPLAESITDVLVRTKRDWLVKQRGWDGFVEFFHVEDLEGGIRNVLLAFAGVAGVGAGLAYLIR

Large T antigen = Large T antigen (Simian virus 40, UniProt P03070); format: functional, Betapolyomavirus macacae;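 further: Confirmatory-stage PubChem screen for compounds that inhibit SV40 T antigen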
Large T antigen, sequence (P03070 whole entry): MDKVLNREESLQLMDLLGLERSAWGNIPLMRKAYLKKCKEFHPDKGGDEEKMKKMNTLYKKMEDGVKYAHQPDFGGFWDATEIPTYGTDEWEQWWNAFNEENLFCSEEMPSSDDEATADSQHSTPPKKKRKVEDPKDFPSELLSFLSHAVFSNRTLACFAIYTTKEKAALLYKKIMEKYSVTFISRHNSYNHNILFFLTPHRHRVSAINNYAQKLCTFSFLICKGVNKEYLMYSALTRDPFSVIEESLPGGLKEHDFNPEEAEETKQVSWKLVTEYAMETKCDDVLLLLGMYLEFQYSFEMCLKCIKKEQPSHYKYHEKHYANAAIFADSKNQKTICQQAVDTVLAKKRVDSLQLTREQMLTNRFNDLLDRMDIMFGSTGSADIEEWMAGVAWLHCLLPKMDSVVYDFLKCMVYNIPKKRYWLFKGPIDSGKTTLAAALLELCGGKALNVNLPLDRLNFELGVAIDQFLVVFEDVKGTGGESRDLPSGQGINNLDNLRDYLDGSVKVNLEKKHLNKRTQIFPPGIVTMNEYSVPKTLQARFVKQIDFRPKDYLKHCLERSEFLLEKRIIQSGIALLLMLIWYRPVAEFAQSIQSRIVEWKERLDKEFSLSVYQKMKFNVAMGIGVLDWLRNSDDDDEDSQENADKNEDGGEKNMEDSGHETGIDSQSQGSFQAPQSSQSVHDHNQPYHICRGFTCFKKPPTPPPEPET

[7] = molecular target: Intestinal-type alkaline phosphatase (Homo sapiens, UniProt P09923); assay: inhibition of human intestinal alkaline phosphatase – biochemical, dose response (AID 488876); format: functional
Intestinal-type alkaline phosphatase (Homo sapiens, UniProt P09923), sequence (P09923 whole entry): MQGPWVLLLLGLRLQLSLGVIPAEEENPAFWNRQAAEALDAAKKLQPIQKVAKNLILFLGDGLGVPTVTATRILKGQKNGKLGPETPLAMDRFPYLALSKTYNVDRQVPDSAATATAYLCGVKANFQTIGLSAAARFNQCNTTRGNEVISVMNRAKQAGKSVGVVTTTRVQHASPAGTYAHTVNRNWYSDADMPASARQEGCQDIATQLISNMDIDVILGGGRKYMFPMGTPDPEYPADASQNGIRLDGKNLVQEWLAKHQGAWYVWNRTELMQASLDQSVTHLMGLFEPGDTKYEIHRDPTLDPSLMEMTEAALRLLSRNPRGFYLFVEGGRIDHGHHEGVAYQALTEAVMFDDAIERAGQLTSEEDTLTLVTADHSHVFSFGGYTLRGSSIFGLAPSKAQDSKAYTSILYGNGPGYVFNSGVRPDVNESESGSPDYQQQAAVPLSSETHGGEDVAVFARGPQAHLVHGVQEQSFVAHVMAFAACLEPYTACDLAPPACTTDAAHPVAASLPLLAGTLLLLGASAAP

[8] = molecular target: T3, Histone-lysine N-methyltransferase NSD2 (Homo sapiens, UniProt O96028); format: biochemical
T3 sequence (O96028 whole entry): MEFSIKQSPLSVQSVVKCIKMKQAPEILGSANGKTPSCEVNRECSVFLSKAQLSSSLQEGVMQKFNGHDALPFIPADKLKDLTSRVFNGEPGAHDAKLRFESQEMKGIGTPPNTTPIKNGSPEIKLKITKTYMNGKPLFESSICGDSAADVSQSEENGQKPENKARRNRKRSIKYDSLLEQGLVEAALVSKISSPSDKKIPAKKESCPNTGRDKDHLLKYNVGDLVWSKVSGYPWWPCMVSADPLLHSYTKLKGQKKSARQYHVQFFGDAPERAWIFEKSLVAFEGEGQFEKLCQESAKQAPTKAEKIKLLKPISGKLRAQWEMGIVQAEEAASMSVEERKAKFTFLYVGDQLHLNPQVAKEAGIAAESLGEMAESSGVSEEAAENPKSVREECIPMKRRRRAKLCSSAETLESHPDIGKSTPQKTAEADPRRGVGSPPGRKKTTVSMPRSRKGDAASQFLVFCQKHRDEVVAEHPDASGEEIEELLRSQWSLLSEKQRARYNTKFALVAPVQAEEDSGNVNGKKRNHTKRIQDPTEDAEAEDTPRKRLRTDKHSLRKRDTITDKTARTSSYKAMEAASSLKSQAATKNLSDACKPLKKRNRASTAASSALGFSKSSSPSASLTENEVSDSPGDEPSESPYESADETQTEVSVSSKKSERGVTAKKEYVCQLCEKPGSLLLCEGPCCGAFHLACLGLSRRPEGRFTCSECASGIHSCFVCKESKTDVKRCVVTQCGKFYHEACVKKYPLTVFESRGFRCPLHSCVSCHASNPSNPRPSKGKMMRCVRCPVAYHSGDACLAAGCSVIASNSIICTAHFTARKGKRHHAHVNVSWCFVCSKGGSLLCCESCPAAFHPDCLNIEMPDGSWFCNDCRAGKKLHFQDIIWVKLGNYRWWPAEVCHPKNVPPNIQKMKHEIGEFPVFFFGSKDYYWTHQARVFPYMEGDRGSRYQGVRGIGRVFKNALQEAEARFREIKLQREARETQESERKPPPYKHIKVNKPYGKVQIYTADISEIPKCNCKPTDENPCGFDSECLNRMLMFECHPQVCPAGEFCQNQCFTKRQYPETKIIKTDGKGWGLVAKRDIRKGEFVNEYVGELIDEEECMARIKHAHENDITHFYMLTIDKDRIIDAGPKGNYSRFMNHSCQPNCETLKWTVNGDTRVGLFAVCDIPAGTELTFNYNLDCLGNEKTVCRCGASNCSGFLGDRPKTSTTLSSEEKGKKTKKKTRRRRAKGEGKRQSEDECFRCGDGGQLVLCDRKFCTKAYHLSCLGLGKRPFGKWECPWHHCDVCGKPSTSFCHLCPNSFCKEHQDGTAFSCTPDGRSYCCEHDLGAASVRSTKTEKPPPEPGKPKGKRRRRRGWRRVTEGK

[9] = molecular target: 1-phosphatidylinositol 4,5-bisphosphate phosphodiesterase beta-3 (Homo sapiens, UniProt Q01970); assay: Fluorescence-based biochemical high throughput dose response assay to identify inhibitors of phospholipase C isozymes (PLC-B3).
1-phosphatidylinositol 4,5-bisphosphate phosphodiesterase beta-3, sequence (Q01970 whole entry): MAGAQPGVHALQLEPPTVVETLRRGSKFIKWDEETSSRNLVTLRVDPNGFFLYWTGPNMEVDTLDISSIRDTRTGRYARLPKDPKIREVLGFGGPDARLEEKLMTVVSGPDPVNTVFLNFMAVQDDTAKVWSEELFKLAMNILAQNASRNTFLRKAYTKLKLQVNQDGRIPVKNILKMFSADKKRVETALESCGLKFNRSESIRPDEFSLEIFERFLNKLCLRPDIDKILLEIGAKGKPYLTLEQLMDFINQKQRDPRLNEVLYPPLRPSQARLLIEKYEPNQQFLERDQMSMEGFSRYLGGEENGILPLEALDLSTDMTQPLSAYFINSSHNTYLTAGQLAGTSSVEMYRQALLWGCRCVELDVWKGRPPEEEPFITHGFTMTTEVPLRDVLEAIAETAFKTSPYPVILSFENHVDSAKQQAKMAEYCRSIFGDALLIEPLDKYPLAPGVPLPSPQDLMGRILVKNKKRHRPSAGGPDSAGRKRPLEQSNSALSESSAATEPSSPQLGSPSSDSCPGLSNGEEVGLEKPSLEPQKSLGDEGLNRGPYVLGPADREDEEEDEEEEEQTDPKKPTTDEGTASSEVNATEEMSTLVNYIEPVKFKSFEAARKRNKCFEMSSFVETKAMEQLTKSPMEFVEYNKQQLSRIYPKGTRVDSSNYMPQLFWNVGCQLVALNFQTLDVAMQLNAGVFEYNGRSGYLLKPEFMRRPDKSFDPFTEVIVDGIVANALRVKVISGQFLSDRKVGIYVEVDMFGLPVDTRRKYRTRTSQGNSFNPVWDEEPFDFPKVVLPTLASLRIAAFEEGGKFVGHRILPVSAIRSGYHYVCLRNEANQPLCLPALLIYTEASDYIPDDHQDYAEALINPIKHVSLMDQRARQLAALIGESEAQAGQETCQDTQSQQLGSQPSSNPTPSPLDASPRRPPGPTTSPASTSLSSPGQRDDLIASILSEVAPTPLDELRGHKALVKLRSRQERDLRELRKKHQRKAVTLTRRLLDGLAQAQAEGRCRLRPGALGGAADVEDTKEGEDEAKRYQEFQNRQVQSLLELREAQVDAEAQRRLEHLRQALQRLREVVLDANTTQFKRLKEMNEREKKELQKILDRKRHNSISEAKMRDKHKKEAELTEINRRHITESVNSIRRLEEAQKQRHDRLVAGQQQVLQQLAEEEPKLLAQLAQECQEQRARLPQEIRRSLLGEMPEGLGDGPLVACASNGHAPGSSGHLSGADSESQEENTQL

[10] = molecular target: 1-phosphatidylinositol 4,5-bisphosphate phosphodiesterase gamma-1 (Homo sapiens, UniProt P19174); assay: Counterscreen for inhibitors of phospholipase C isozymes (PLC-B3): Fluorescence-based biochemical high throughput dose response assay to identify inhibitors of phospholipase C isozymes (PLC-gamma1).
Genome polyprotein = Genome polyprotein (dengue virus type 2, UniProt P29990); assay: Dengue-2 NS5 methyltransferase inhibitors, primary screen, biochemical, confirmation dose response (AID 588689); format: functional
Genome polyprotein, sequence (P29990 2492-3391 limits assumed): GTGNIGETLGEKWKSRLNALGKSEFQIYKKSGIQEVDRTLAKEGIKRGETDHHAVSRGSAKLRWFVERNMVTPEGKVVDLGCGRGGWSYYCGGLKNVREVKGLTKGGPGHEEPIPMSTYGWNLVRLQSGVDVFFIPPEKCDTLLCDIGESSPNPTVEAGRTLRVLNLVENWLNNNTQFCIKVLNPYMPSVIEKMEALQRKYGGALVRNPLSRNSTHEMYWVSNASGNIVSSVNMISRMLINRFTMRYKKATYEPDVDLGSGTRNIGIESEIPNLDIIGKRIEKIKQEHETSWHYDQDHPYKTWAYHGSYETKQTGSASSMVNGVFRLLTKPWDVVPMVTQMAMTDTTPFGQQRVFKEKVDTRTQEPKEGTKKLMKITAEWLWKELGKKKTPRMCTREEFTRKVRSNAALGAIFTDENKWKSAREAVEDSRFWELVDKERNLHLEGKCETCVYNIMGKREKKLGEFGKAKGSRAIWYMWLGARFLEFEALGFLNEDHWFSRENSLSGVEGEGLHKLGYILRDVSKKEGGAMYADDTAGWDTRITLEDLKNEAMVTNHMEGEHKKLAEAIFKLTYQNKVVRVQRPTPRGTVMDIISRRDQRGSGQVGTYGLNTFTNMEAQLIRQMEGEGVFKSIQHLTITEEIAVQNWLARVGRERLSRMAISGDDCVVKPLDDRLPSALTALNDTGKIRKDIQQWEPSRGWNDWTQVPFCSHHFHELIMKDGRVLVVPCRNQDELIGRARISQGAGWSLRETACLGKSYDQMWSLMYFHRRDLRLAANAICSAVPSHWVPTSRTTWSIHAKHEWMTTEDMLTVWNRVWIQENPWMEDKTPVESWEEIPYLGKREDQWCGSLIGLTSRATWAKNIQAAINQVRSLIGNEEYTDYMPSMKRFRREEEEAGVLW

[11] = molecular target: T4, Alkaline phosphatase, tissue-nonspecific isozyme (Homo sapiens, UniProt P05186); assay: TNAP enzyme inhibition by screening hits, dose response, selectivity assay for mouse IAP inhibitor project, biochemical, human TNAP, uHTS hits (AID 488906); format: functional
T4 sequence (P05186 whole entry): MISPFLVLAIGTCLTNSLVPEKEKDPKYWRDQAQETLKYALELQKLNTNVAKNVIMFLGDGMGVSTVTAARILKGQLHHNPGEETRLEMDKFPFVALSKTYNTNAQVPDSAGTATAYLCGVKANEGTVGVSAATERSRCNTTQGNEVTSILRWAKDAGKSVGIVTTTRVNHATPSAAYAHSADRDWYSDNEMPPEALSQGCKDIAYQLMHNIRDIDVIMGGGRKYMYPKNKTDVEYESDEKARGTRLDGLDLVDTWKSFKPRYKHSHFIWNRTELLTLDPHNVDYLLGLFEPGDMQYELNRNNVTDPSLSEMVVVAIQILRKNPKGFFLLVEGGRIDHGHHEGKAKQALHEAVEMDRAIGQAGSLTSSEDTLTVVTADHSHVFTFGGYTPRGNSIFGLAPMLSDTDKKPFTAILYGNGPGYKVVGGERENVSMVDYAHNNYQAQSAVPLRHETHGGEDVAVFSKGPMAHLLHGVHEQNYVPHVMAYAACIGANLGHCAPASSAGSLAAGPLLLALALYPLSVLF

HeLa = assay: HeLa cell cytotoxicity, dose response, cytotoxicity control, 24 h, cherry-picked samples (AID 504726); format: functional, cell-based; conditions: Homo sapiens;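 further: potency for cytotoxicity as loss of luminescence signal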
ORF 73 = ORF 73 (Human herpesvirus 8, UniProt O40947); assay: inhibitors of C-LANA binding to LBS DNA, dose response, biochemical, fluorescence polarization, cherry-picked samples (AID 504725); set-up: species or system Human gammaherpesvirus 8;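 further: fluorescence polarization of a labeled DNA duplex reporting LANA DNA binding; potency is for inhibitors that block LANA binding to the DNA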
ORF 73, sequence (O40947 whole entry): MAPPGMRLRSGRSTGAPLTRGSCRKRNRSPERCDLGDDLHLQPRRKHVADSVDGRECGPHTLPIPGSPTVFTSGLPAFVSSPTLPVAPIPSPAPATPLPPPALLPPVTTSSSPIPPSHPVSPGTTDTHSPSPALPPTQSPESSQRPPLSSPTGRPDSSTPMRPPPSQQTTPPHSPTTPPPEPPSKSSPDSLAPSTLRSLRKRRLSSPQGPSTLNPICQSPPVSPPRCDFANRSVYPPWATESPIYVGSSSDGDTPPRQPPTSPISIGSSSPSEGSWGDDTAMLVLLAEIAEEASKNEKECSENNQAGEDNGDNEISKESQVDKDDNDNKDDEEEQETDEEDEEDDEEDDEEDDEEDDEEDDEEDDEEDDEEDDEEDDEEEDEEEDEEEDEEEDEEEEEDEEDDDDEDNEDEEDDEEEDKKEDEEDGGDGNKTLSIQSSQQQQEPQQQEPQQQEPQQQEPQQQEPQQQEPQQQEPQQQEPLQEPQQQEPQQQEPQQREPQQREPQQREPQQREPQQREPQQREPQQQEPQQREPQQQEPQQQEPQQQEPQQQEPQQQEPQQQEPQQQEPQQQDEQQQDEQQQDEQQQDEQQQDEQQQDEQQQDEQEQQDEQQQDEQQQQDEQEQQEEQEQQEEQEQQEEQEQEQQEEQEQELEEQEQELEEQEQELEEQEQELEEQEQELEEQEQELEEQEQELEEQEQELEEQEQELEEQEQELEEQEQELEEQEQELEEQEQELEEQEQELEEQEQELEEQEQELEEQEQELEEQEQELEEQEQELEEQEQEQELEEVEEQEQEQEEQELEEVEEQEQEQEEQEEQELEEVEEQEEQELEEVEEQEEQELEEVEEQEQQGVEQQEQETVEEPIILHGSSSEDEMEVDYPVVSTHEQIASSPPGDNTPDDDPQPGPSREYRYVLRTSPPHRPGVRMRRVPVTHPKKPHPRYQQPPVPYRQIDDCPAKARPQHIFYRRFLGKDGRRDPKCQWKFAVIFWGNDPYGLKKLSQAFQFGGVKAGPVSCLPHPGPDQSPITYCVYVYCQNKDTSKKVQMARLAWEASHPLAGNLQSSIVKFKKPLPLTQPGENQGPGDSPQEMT

IC50 (Coagulation factor XII): > 50 µM (inactive)
Compound: CCOc1cc(/C=N/n2cnnc2)cc(Br)c1O

Compound: N#CCC(=O)Nc1ccc(C(=O)OCC(=O)Nc2ccccc2Sc2ccccc2)cc1
IC50 [1]: > 109 µM (inactive) | EC50 [2]: > 260 µM (inactive) | IC50 [3]: > 83.3 µM (inactive) | IC50 [4]: 2.17 µM (active)

Compound: O=C(CN1C(=O)/C(=C/c2ccco2)SC1=S)Nc1ccc(O)c(C(=O)O)c1
IC50 [5]: 5.86 µM (active) | IC50 (Bcl-2-like protein 1): > 109 µM (not active) | IC50 [6]: 18.5 µM (not active) | IC50 (Large T antigen): 54.3 µM (active) | IC50 [7]: 13.2 µM (active) | AC50 [8]: > 20 µM (inactive) | IC50 [9]: > 122 µM (inactive) | IC50 [10]: > 122 µM (inactive) | IC50 (Genome polyprotein): > 100 µM (active) | IC50 [11]: 15.1 µM (active) | AC50 (HeLa): > 350 µM (inactive) | AC50 (ORF 73): 98.5 µM (active)
